Test results published in US6936283B2, “Composition for stimulation of specific metallo-enzymes” (priority 2003, dated 2005).

Experiments:
[1] = target: liver alcohol dehydrogenase (LADH); conditions: inhibit the activity of LADH enzyme, ref [1]; given in words only; cited from earlier work
healthy individuals = assay: Alcohol metabolism in test persons after vodka, alcohol level measured with CA 2000 Digital Alcohol Detector every 30 minutes; assay type: in vivo, human; conditions: from comparing the fructose-containing and fructose-free compositions
Procedure: The study presented in Table 2 and 3 included 10 individuals (6 males and 4 females, 24-57 years old).
In the first study (Table 2A) the test persons were given 8 oz. (ca.2.4 dl) of vodka mixed with 6 dl Sprite (The Coca Cola Company). The alcohol was consumed within one hour. 45 minutes after alcohol consumption each person drank 500 ml water. The alcohol level was then measured as described under.
One week later, the same test persons were given the same amount of vodka and Sprite. 45 minutes after alcohol consumption each test person drank 500 ml of the composition of the present invention. The alcohol level was then measured as described under.
Both part of the second study (Table 2 B) was performed in the same way as described for the study presented […], with the exception that the test persons were given a 500 ml solution containing 90 g fructose, 90 mg caffeine and 500 mg vitamin C instead of the composition of the present invention. The alcohol level was again measured as described below.
The alcohol level (measured in 0/00) was measured with a CA 2000 Digital Alcohol Detector once every 30 minutes in each experiment. Each value is an average of four parallel measurements.

SMILES	Ki [1]	contribution to the acceleration of alcohol degradation (healthy individuals)
CC(=O)N[C@@H](CS)C(=O)O [acetylcysteine]	in the uM-mM area	
O=C(CO)[C@@H](O)[C@H](O)[C@H](O)CO [fructose]		20-25%
CSCC[C@H](N)C(=O)O [methionine]	in the uM-mM area	
N[C@@H](CCC(=O)N[C@@H](CS)C(=O)NCC(=O)O)C(=O)O [glutathione]	in the uM-mM area	
N[C@@H](CS)C(=O)O [cysteine]	in the uM-mM area	
